Consider 15 molecules from US7947275B2 (Signe Biopharma, Inc., priority 2000, dated 2011).

The subject of one data set is H301 cells. The experiment in a line: Cell growth assay, H301 kidney tumor cells. Particulars: 50% (v/v) CDE-horse serum.
The test system of the next data set is MTW9/PL2 cells. As to the kind of experiment: Cell growth assay, MTW9/PL2 rat mammary tumor cells. As to conditions: for concentration causing significant (p<0.05) growth / concentration for optimum growth: 50% (v/v) CDE-horse serum.
For data set [1], the target named is T1, CA-PS-Pool I (predominantly CBG) (Equus caballus, UniProt F7DRS2).
T1 sequence (F7DRS2 23-406): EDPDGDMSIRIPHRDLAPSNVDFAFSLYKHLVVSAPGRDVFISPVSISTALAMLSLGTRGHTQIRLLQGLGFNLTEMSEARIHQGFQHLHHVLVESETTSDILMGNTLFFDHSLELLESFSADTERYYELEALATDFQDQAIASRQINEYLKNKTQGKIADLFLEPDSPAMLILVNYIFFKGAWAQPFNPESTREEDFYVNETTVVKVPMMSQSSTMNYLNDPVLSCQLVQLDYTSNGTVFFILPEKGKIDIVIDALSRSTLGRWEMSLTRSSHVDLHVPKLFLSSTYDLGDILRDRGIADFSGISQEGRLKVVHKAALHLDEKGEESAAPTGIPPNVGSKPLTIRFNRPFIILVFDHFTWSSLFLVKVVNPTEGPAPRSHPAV
The experiment in a line: Scatchard analysis of labeled steroid binding to CA-PS-pool I. The arrangement: species or system horse. As to conditions: 3H-labeled steroid, 34° C.; for Kd: read-out: CA-PS-Pool I Kd.

Another data set concerns CA-PS-Pool II. As to the kind of experiment: Scatchard analysis of labeled steroid binding to CA-PS-pool II. Details: species or system horse. As to conditions: 3H-labeled steroid, 34° C.
The subject of data set [2] is CA-PS-Pool II from rat serum. As to the kind of experiment: Scatchard analysis of labeled steroid binding to the SHBG-like pools from rat serum. Particulars: 3H-labeled steroid.
Another data set concerns T47D cells. As to the kind of experiment: Cell growth assay, T47D human breast cancer cells. Particulars: for growth effect of steroid hormone, result in words: 50% (v/v) CDE horse serum, 14 days.
The subject of data set [3] is progesterone receptors in MTW9/PL2 cells. The experiment in a line: ^3H-progesterone binding to MTW9/PL2 cells. The arrangement: species or system rat. As to conditions: 37° C.
The target in data set [4] is progesterone receptors in MTW9/PL2 cells (Rattus norvegicus, UniProt Q63449). As to the kind of experiment: ^3H-progesterone binding to MTW9/PL2 cells.
For a further data set, the system named is GH4C1 cells. As to the kind of experiment: Cell growth assay, GH4C1 rat pituitary tumor cells. Particulars: 50% CDE-horse serum.
The target in data set [5] is T2, estrogen receptors of MTW9/PL2 cells (Rattus norvegicus, UniProt P06211).
T2 construct: endogenous in cells; host or cells: MTW9/PL2 rat mammary tumor cells (whole cells; some values from extracts of the parental MTW9/PL line)
The experiment in a line: ^3H-E2 binding to MTW9/PL2 cells. As to conditions: 5 nM ^3H-E2, 37° C., 100-fold molar excess of unlabeled steroid.

The test system of data set [6] is MCF-7A, MCF-7K, T47D and ZR-75-1 cells. As to the kind of experiment: Growth factors as substitutes for E2 with human breast cancer cells in CDE-horse serum. The class given is cell-based. Particulars: EGF, TGFα growth saturating; IGF-I 1.0 μg/mL; IGF-II up to 500 ng/mL; insulin 10 ng/mL to 10 μg/mL.
The next data set has as its system LNCaP cells. The experiment in a line: Cell growth assay, LNCaP human prostatic carcinoma cells. Particulars: for reversal of the inhibition caused by CDE-horse serum: D-MEM/F-12 with CDE-horse serum, 10 nM steroid. The data set is classed as cell-based.
In data set [7] the test system is androgen receptors of MTW9/PL2 cells.
Another data set addresses human SHBG (Homo sapiens, UniProt P04278). As to conditions: 37° C.; cited from earlier work.
The conditions of data set [8]: read-out: Kd of specific binding of ^3H-DHT.
For data set [9] the following is noted: read-out: Kd of specific binding of ^3H-DHT, Scatchard analysis.
For another data set, the system named is DU145 cells. As to the kind of experiment: Cell growth assay, DU145 human prostate cancer cells. As to conditions: CAPM, 10 μM Fe (III).
A further data set has as its system PC3 cells. The experiment in a line: Cell growth assay, PC3 human prostate cancer cells. Particulars: CAPM, 10 μM Fe (III).
A further data set has as its system MCF-7A cells. As to the kind of experiment: Cell growth assay, MCF-7A human breast cancer cells. Particulars: DDM-2MF with 10 μg/mL apotransferrin in place of deferoxamine.
In a further data set the test system is ALVA-41 cells. As to the kind of experiment: Cell growth assay, ALVA-41 human prostate cancer cells. As to conditions: results not shown.
The subject of data set [10] is MCF-7A, T47D, ZR-75-1, LNCaP and GH4C1 cells. As to the kind of experiment: TGFβ1 at 50 ng/mL ± E2 with other ER^+ cell lines. The class given is cell-based.
In a further data set the test system is MCF-7K cells. The experiment in a line: Cell growth assay, MCF-7K human breast cancer cells.

Values joined by “and” are separate entries in the source; they are usually repeats but may differ in a detail not shown here. Identical values can stand only once. Counter-ions that a name gives are not always drawn. Like-named read-outs stand apart in the source and are kept apart here.

Chain of progesterone receptors in MTW9/PL2 cells (Rattus norvegicus, UniProt Q63449) (Q63449 669-923 limits assumed): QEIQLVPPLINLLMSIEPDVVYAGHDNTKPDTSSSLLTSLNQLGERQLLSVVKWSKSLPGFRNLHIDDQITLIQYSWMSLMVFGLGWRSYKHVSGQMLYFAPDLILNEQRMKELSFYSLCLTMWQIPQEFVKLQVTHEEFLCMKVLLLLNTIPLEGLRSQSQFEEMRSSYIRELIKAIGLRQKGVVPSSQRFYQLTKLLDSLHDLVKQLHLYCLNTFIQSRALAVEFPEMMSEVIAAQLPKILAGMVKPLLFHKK
Chain of human SHBG (P04278 30-402): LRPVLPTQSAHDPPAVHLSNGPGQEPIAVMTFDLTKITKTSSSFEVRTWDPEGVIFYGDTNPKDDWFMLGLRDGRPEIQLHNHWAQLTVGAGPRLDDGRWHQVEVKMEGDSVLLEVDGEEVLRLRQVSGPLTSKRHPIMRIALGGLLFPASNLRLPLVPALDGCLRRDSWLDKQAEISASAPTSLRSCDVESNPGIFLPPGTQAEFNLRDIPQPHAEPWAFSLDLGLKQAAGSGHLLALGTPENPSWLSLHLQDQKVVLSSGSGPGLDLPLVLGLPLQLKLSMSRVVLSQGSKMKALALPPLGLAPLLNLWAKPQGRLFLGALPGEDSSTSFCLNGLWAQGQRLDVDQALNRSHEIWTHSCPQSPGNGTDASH
T2 sequence (P06211 whole entry): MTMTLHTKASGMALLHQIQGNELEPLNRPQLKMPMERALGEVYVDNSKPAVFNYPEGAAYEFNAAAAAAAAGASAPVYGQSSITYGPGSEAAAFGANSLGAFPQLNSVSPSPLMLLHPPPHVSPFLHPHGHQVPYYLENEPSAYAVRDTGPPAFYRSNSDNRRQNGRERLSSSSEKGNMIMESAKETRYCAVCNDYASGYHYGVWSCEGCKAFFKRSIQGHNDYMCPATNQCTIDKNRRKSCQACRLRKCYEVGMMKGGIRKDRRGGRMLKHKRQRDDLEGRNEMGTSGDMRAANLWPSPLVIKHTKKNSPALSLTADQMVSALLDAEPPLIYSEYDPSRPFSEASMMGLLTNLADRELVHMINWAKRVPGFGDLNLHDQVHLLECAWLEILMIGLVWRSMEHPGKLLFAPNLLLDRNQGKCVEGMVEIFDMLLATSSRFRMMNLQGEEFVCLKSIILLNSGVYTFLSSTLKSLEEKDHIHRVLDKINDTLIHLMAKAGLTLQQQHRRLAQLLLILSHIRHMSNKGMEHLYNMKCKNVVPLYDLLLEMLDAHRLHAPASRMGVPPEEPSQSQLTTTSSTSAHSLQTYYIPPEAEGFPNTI
Text for ALVA-41 cells: (§1) General Cell Culture—Growth Assay Methods.
(§2) General Cell Culture—Harvest and Counting Cells.
(§3) General Cell Culture—Quantification of Growth.
Text for DU145 cells: as §1, §2, §3
Text for H301 cells: as §1, §2, §3
Experimental for LNCaP cells: Specific modifications of the customary cell growth assays were required for assays done under iron-restricted conditions. […] Serum-free components were added to “low-Fe” D-MEM/F-12 at double the concentrations needed (2X) or to “standard” D-MEM/F-12 at (2X) as the experiments dictated. Each assay dish received 1.0 mL of this solution. Next, the cells to be used in the assays were washed three times in either “low-Fe” medium or “standard” medium depending upon the experimental protocol.
Text for MCF-7A cells: as §1, §2, §3
Text for MCF-7K cells: as §1, §2, §3
Text for PC3 cells: as §1, §2, §3
Text for T47D cells: as §1, §2, §3

One may read the Kd as the free concentration of one partner at which half of the binding sites on the other are occupied at equilibrium, for simple one-to-one binding. Take `CC(=O)[C@H]1CC[C@H]2[C@@H]3CCC4=CC(=O)CC[C@]4(C)[C@H]3CC[C@]12C` [progesterone, Progesterone]: the “growth effect of steroid hormone, result in words” value (“growth effect of steroid hormone” for short) in the data set on H301 cells is “inactive”; with T47D cells, “completely ineffective”; in the data set with GH4C1 cells, “had no effect on GH4C1 growth”. Further, the “concentration causing significant (p<0.05) growth” value with MTW9/PL2 cells is not below 100 nM. In addition, in data set [1], the “CA-PS-Pool I Ka” value is 5.9e+08 M⁻¹. Also, the Kd is 1.7 nM in [1]; 7890 nM on CA-PS-Pool II; 6900 nM in data set [2]; 1.02 nM in data set [3] (read-out: Kd of ^3H-progesterone binding, Scatchard analysis, whole cells); 3.29 nM in [4]. For the same molecule, the “CA-PS-Pool II Ka” value was 117000 M⁻¹ with CA-PS-Pool II and 140000 M⁻¹ in [2]. For the same molecule, the “^3H-progesterone concentration at one-half saturation” value in data set [3] was in the range of 0.5 to 1 nM. The “labeled progesterone concentration saturating specific binding” value in [3] is listed as not below 5 nM.

`C[C@]12CC[C@@H]3c4ccc(O)cc4CC[C@H]3[C@@H]1CCC2=O` [E1, Estrone]: the “concentration required to achieve significant (p<0.05) growth” value in the data set on H301 cells turned out to be 100 pM. In addition, the “concentration for optimum growth” value with MTW9/PL2 cells is 1 nM. For the same molecule, in the data set with GH4C1 cells, the “concentration required for optimum growth” value came to 10 nM and the “lowest concentration that gave significant (p<0.05) growth” value is 1 pM.

With `C[C@]12CC[C@@H]3c4ccc(O)cc4CC[C@H]3[C@@H]1C[C@@H](O)[C@@H]2O` [E3, Estriol], the “concentration for optimum growth” value in the data set on MTW9/PL2 cells was 10 nM. The “growth effect of steroid hormone” value in the data set on GH4C1 cells is on record as “substantially less effective”.

In the case of `C[C@]12CC[C@H]3[C@@H](CCC4=CC(=O)CC[C@@]43C)[C@@H]1CC[C@@H]2O` [T, Testosterone], the “growth effect of steroid hormone” value was “inactive” with H301 cells, “promoted growth but only at supraphysiological concentrations” in the data set on T47D cells and “ineffective” with GH4C1 cells. The “reduction of ^3H-E2 total binding by unlabeled steroid” value in [5] was “did not displace ^3H-E2 total binding significantly”.

In the case of IGF-II: insulin-like growth factor II, in data set [6], the “reversal of the CDE-serum inhibition (substitute for E2)” value (“reversal of the CDE-serum inhibition” for short) was “did not reverse the inhibitory effects of 10 to 50% (v/v) CDE serum”.

On to `C[C@]12CCC(=O)C[C@@H]1CC[C@@H]1[C@@H]2CC[C@]2(C)[C@@H](O)CC[C@@H]12` [DHT, Dihydrotestosterone], for which the “growth effect of steroid hormone” value in the data set with H301 cells was “inactive”; with T47D cells, “promoted growth but only at supraphysiological concentrations”. In addition, the “concentration causing significant (p<0.05) growth” value with MTW9/PL2 cells is not below 10 nM; in the data set on LNCaP cells (D-MEM/F-12 with 50% (v/v) CDE horse serum) it was 1 pM. Moreover, the “CA-PS-Pool I Ka” value in data set [1] worked out at 164000 M⁻¹. Moreover, the dissociation constant (Kd) in data set [1] is 6050 nM; on CA-PS-Pool II, 14.3 nM; in [2] it was 24 nM; in [8] it was 15 to 40 nM; in [9] it was 1 to 5 nM. Moreover, the entries for the “CA-PS-Pool II Ka” value (in the data set on CA-PS-Pool II; in the data set with CA-PS-Pool II (listed as 3H-DHT); in [2]) were 6.99e+07 M⁻¹, 5.88e+07 M⁻¹ and 4.1e+07 M⁻¹, respectively. Further, in the data set on LNCaP cells, the “reversal of the inhibition caused by CDE-horse serum” value is “effectively reversed the inhibition”. In the data set on LNCaP cells (serum-free CAPM ± 10 nM DHT), the “androgenic effect (difference between presence and absence of DHT)” value is “less than one”. Besides, the “specific saturable binding sites for androgens” value in data set [7] is given as “did not reveal saturable specific binding sites”. At human SHBG, the “Ka of purified human SHBG” value was 9.9e+08 M⁻¹.

As to IGF-I: insulin-like growth factor I, the “reversal of the CDE-serum inhibition” value in data set [6] is listed as “did not reverse the serum inhibition”.

On to insulin: bovine insulin, for which the “reversal of the CDE-serum inhibition” value in [6] was “did not reverse the inhibition caused by 50% (v/v) CDE serum”.

With `[Fe+3]` [Fe (III)], the “reduction in cell number” value in the data set with DU145 cells is given as 30%; in the data set with PC3 cells it was 10%. Also, the “concentration giving complete inhibition” value in the data set on T47D cells (DDM-2MF with 10 μg/mL apotransferrin instead of deferoxamine, 10 days, ± E2) was 2 µM. Moreover, the IC50 is 1000 nM in the data set on T47D cells (read-out: EI50, DDM-2MF with 10 μg/mL apotransferrin instead of deferoxamine, 10 days); 5000 nM with LNCaP cells (CAPM with apotransferrin (500 nM) substituted for deferoxamine, 12-day assay, read-out: EI50 (the source's name)); 5000 to 7000 nM with MCF-7A cells (read-out: EI50, 10 days). The “concentration arresting growth to seed density levels” value in the data set with LNCaP cells (CAPM with apotransferrin (500 nM) substituted for deferoxamine, 12-day assay, second experiment in CAPM) was 10 µM and 8 to 10 µM. In the data set with MCF-7A cells (± E2, 10 days), the concentration completely inhibitory amounted to 10 µM. The “iron sensitivity of growth” value with ALVA-41 cells is “not iron sensitive”.

`CC(=O)N(O)CCCCCNC(=O)CCC(=O)N(O)CCCCCNC(=O)CCC(=O)N(O)CCCCCN` [deferoxamine, deferoxamine mesylate]: in the data set on LNCaP cells (CAPM without deferoxamine plus […] Fe (III), 0.5 μM chelator), the “growth induced by chelator” value turned out to be 3.5 CPD.

Take `CC/C(=C(/CC)c1ccc(O)cc1)c1ccc(O)cc1` [DES, Diethylstilbestrol]: the “reversal of the inhibition caused by CDE-horse serum” value with LNCaP cells is “entirely ineffective”.

Turning to “TGFα: transforming growth factor α, EGF analogue”, the “reversal of the CDE-serum inhibition” value in data set [6] was “did not reverse the effects of the serum-borne inhibitor”.

On to “EGF: epidermal growth factor from mouse submaxillary gland (NSYPGCPSSYDGYCLNGGVCMHIESLDSYTCNCVIGYSGDRCQTRDLRWWELR; not fully specified; Epidermal growth factor; UniProt P01132 977-1029, looked up)”, for which the “reversal of the CDE-serum inhibition” value in data set [6] was “did not reverse the effects of the serum-borne inhibitor”.

On to `CC/C(=C(\c1ccccc1)c1ccc(OCCN(C)C)cc1)c1ccccc1` [tamoxifen, Tamoxifen Citrate], for which the “estrogen reversal of the tamoxifen inhibition” value in the data set on T47D cells (1.0×10^−7 M tamoxifen, serum-free defined medium) is given as “estrogens completely reverse the effect”. Further, in the data set with T47D cells (concentrations above 1.0×10^−7 M, serum-free DDM-2MF), the cytotoxicity result is reported as “Higher concentrations were cytotoxic”. Besides, in the data set with T47D cells (serum-free DDM-2MF without any source of estrogens), the “concentration that completely inhibited (arrested) growth” value turned out to be 100 nM.

For the molecule TGFβ1: transforming growth factor β1, the “cell numbers per dish with TGFβ1 (350,000 without)” value in the data set with MTW9/PL2 cells (D-MEM/F-12 with […] (v/v) CDE-horse serum) is reported as 100,000 per dish; in the data set with MCF-7K cells ([…] (v/v) CDE-horse serum, 50 ng/mL), 200,000 per dish. Besides, in the data set on MTW9/PL2 cells ([…] (v/v) CDE-horse serum), the “decrease in growth rate” value is not above 25%. Further, in the data set with MTW9/PL2 cells ([…] (v/v) CDE-horse serum), the inhibition of growth amounted to 1.5 CPD. Further, the “estrogen reversal of the inhibition” value in the data set with MTW9/PL2 cells ([…] (v/v) CDE-horse serum ± E2) is on record as “no estrogen reversal of the TGFβ1 inhibition”; in the data set with MCF-7K cells ([…] (v/v) CDE-horse serum ± E2), “no TGFβ1 related estrogenic effect”. Moreover, in [10], the “substitution for the estrogen reversible inhibitor” value is “did not substitute for the estrogen reversible inhibitor(s) in CDE serum”.
